Measured values: ChEMBL document CHEMBL4811240, “Discovery of N-substituted sulfamoylbenzamide derivatives as novel inhibitors of STAT3 signaling pathway based on Niclosamide” (Eur J Med Chem, 2021)

Key:
[1] = biological target: Proto-oncogene tyrosine-protein kinase Src (Homo sapiens) (UniProt P12931); test: Inhibition of full length SRC (1 to 536 residues) (unknown origin) expressed in Sf21 cells at 10 uM preincubated for 10 mins followed by peptide substrate addition relative to control
[2] = biological target: Fibroblast growth factor receptor 2 (Homo sapiens) (UniProt P21802); test: Inhibition of N-terminal GST-tagged FGFR2 (399 to 821 residues) (unknown origin) expressed in Sf21 cells at 10 uM preincubated for 10 mins followed by peptide substrate addition relative to control
Chain of Fibroblast growth factor receptor 2 (Homo sapiens) (P21802 22-821 limits assumed): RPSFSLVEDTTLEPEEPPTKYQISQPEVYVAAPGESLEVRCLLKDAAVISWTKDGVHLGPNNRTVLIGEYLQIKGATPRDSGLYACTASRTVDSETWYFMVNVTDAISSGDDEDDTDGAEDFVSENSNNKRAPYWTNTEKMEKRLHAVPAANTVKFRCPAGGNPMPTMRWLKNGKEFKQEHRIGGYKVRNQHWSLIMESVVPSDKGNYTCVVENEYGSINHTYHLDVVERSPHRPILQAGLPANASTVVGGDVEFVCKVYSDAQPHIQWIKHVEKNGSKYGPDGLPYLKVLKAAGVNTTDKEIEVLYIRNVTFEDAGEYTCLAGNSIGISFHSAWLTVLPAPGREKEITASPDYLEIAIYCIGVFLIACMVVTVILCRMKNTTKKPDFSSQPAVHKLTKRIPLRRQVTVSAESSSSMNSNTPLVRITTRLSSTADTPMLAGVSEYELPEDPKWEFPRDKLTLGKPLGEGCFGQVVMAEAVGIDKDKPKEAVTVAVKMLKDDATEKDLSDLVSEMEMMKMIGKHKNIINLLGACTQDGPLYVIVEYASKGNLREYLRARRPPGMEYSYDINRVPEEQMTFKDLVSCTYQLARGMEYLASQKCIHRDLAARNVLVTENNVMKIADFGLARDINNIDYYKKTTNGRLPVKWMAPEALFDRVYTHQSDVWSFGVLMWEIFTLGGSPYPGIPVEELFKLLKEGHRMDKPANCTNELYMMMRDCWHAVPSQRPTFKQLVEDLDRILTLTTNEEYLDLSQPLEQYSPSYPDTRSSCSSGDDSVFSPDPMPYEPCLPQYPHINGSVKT

[3] = biological target: Serine/threonine-protein kinase PLK1 (Homo sapiens) (UniProt P53350); test: Inhibition of full length PLK1 (1 to 603 residues) (unknown origin) expressed in Sf21 at 10 uM preincubated for 10 mins followed by peptide substrate addition relative to control
Chain of Serine/threonine-protein kinase PLK1 (Homo sapiens) (P53350 whole entry, the tested form may be a part): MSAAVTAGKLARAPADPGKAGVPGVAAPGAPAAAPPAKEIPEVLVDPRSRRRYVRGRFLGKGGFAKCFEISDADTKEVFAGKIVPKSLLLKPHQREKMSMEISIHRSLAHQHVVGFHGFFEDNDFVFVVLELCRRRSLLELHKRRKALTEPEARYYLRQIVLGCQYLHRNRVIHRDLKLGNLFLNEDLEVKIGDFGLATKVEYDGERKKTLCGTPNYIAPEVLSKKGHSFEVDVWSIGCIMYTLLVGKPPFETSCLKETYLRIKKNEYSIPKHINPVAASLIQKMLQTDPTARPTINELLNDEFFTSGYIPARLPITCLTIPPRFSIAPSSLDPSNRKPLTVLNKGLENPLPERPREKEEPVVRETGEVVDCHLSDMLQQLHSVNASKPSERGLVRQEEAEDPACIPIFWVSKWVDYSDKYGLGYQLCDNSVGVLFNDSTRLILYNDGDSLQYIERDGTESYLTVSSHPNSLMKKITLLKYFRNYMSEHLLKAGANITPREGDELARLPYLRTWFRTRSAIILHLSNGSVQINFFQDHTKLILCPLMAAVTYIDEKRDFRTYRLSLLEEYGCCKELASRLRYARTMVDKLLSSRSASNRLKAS

Chain of Proto-oncogene tyrosine-protein kinase Src (Homo sapiens) (P12931 2-536 limits assumed): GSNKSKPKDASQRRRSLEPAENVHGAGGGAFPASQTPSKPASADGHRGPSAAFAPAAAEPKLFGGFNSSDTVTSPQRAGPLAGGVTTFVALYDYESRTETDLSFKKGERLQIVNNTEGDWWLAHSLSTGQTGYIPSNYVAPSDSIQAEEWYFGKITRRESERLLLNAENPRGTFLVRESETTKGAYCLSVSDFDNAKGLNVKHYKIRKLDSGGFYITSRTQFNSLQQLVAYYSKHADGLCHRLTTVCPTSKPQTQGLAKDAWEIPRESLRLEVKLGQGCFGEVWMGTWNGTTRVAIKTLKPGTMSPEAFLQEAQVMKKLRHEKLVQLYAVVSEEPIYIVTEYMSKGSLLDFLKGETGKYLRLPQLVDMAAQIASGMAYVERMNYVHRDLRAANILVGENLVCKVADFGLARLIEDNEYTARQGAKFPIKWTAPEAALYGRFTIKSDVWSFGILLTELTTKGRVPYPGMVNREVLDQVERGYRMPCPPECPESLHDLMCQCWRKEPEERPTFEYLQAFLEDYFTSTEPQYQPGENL

inhibition [1]: 1.42% | inhibition [2]: 5.28% | inhibition [3]: 5.19%
Structure (SMILES): CC(C)(C)OC(=O)c1ccc(NC(=O)c2ccc(Cl)c(S(N)(=O)=O)c2)cc1
